In US6555114B1, “Immunodominant human T-cell epitopes of hepatitis C virus” (Innogenetics N.V., priority 1993, dated 2003):

Assays:
[1] = test system: PBMC's from 18 healthy control subjects; experiment: T cell proliferation assay with PBMC of healthy control subjects; type: cell-based, human; settings: 17 control subjects, 23 proliferation assays
Procedure: As controls for the specificity of the lymphoproliferative responses, 18 healthy individuals aged 25-58 years (mean 38.6), 10 males and 8 females were selected. These subjects were negative for HCV antibodies and HCV-RNA.
The medium used for all cell cultures consisted of RPMI 1640 supplemented with 25 mM HEPES, 2 mM L-glutamine, 50 U/ml penicillin and 50 μg/ml streptomycin (all from Gibco Europe, Gent, Belgium), 5×10^−5 M 2-mercaptoethanol (Sigma, St. Louis, Mo.) and 10% heat-inactivated pooled human AB serum. This AB serum was obtained from healthy blood donors with blood group AB^+ and was only used when antibodies to HCV and HCV-RNA were absent. This “complemented” RPMI 1640 medium will hereafter be designated “complete medium”.
PBMC were isolated from heparinized venous blood by isopycnic density centrifugation on Ficoll Hypaque (Lymphoprep, Nyegaard, Denmark) and suspended in complete medium. […] PBMC in 200 μl of complete medium were cultured in 96 well round-bottomed microplates (Falcon Plastics) in the absence (unstimulated controls) or presence of varying concentrations of antigens for 5 days at 37° C. in an atmosphere of 5% CO2 in air. 0.5 μCi (^3H)-thymidine was then added to each well and 16 to 20 h later the cultures were harvested onto glass fiber filters using a multichannel cell harvester (PHD, Cambridge, Mass.) to measure the incorporation of (^3H)-thymidine by liquid scintillation counting in an LKB-Wallac 8100 counter (LKB, Bromma, Sweden). Results are expressed as stimulation index (SI; mean cpm of antigen-stimulated cultures/mean cpm of control cultures). Proliferation was considered positive when stimulation index was >3. In some figures the results are expressed as cpm (mean cpm of antigen-stimulated cultures—mean cpm of control cultures). Standard deviations of the mean cpm of triplicate cultures were consistently below 10%.
To analyze and summarize the results of 135 assays performed in the 32 HCV patients, we have chosen to consider the response of an individual patient to a particular antigen preparation (peptide pools 1 to 9, NS1-5*, NS1-7* or NS3 protein) as significant when it induces SI's 3 in at least half of the assays performed. The results shown in Table 4 have been obtained using this scoring method. […] The start of the Interferon therapy serves as the reference point, week 0. None of the patients responded to all the antigens. PBMC's from 13 of 18 (72%) clinical responders and 12 of 14 (85%) non-responders proliferated in response to at least one antigen preparation. All but one antigen preparation, peptide pool 8, induced a proliferative response in at least one subject. The most frequent responses were to peptide pools 2 and 3. Whereas both interferon-responders and non-responders proliferated equally well to peptide pool 2 (56% and 57%, respectively), non-responders reacted less well to peptide pool 3 (29% or 4 of 14) than responders (44% or 8 of 18). […] Clinical non-responders to interferon therapy also reacted more frequently (57 or 8 of 14) upon stimulation with the NS3 protein than responders (24% or 4 of 17). However, none of these differences in proliferative response rates to peptide pools 3, 5 and 9 or to NS3 protein reached statistical significance ([…] in ^2-test). […] Indeed, 8 of 17 responders recognized one or both peptides while none of the non-responders did so. A summary of the results of all these proliferation assays is provided in FIG. 2, in which the response rates of the HCV patients as well as 18 healthy control subjects towards the 12 antigen preparations. Indeed, to establish the relevance of the proliferative responses observed in HCV patients, PBMC's from 18 healthy control subjects were stimulated with the same antigen preparations. Overall, 27 assays were performed: a single assay in 10 subjects, two in 7 volunteers and 3 in one individual. In 12 control subjects none of the antigens induced a proliferative response. […]

[2] = test system: PBMC from 32 patients with chronic HCV; experiment: T cell proliferation assay ((3H)-thymidine incorporation, stimulation index) with PBMC of chronic HCV patients; type: cell-based, human
[3] = patient 626, αIFN responder (R), week 14 of αIFN therapy
[4] = patient 627, αIFN non-responder (NR), week 54 of αIFN therapy
[5] = patient 636, αIFN responder (R), week 28 of αIFN therapy
[6] = patient 637, αIFN non-responder (NR), week 45 of αIFN therapy

Sequence | number of control subjects that recognized the single peptide [1] | share of control subjects that recognized the single peptide [1] | stimulation index (SI), T-cell recognition ([2]; patient 620, αIFN non-responder (NR), week 20 of αIFN therapy) | stimulation index (SI), T-cell recognition [2, 3] | stimulation index (SI), T-cell recognition [2, 4] | stimulation index (SI), T-cell recognition [2, 5] | stimulation index (SI), T-cell recognition [2, 6] | lymphoproliferative response (LPR) to peptide pools and single peptides ([2]; patient 639, IFN responder, LPR to pools 2 and/or 3, pools 4 assays, single peptides 2 assays)
LLSCLTVPASAYQVRNSTGL [C31] | 1 | 6% | — (Only SI equal or greater than 3 are shown.) | — (Only SI equal or greater than 3 are shown.) | — (Only SI equal or greater than 3 are shown.) | — (Only SI equal or greater than 3 are shown.) | — (Only SI equal or greater than 3 are shown.) | + (significant when it induces SI's 3 in at least half of the assays performed)
LLSPRGSRPSWGPTDPRRRS (hepatitis C virus) [C17] | 2 | 12% |  | — (Only SI equal or greater than 3 are shown.) | — (Only SI equal or greater than 3 are shown.) | — (Only SI equal or greater than 3 are shown.) | — (Only SI equal or greater than 3 are shown.) | 
